Several values for one entry are separate records, joined by “and”; a condition that tells them apart may be missing. Equal entries are not always repeated.
How the values were obtained:
[1] = molecular target: T1, PKR in mouse red blood cells (Mus musculus, UniProt P53657); test: PKR activation in mouse red blood cells; type: cell-based; details: mouse RBCs
T1 construct: endogenous in cells; host or cells: mouse RBCs isolated fresh from whole blood
Experimental: The activation of wt-PKR by Compound 1 in mature human erythrocytes ex vivo was evaluated in purified RBCs purchased from Research Blood Components. Cells treated with Compound 1 for 3 hr in glucose-containing media were washed, lysed, and assayed using a Biovision Pyruvate Kinase Assay (K709-100). The assay was repeated multiple times to account for donor-to-donor variability and the relatively narrow dynamic range.
Mouse RBCs were isolated fresh from whole blood using a Ficoll gradient and assayed with methods similar to those used in the human RBCs assays.

[2] = test system: H295R adreno-cortical carcinoma cell line; test: Cell viability (MTT Kit); type: cell-based
Experimental: (§1) To assess potential effects on steroidogenesis, Compound 1 was screened for steroid modulation in vitro using the H295R adreno-cortical carcinoma cell line (at 200 to 0.0002 μM) and in an assay to monitor cell viability (MTT Kit). Compound 1 indicated steroid modulation potential (% over vehicle) only at 200 µM, the top concentration tested, with 100% cellular viability at concentrations ≤20 μM (90% viability at 200 μM).

[3] = test system: Berkeley SS mouse (human HgbS); test: Berkeley SS mouse model of SCD, 7 days in chow; type: in vivo; details: 1000 ppm in chow
Text: Targeted gene deletions and a human transgene in the Berkeley SS mouse model result in mice that express human HgbS almost exclusively (Pászty C. Transgenic and gene knock-out mouse models of sickle cell anemia and the thalassemias. Curr Opin Hematol. 1997 March; 4(2):88-93) and mimic the genetic, hematologic, and histopathologic features of SCD in humans. These include irreversibly sickled RBCs, anemia, and multi-organ pathology.
The effects of Compound 1 on Hgb affinity for oxygen, percentage of sickled cells, and/or Hgb were evaluated in the Berkley SS mouse. Two studies were conducted where mice received 0 or 1000 ppm Compound 1 ad libitum in mouse chow for 7 days. Blood was drawn on Day 7 and analyzed under hypoxic conditions. Red cell parameters were measured by ADVIA.

[4] = test system: 2,3-DPG and ATP levels in whole blood; test: PK/PD studies in wild type mice, QDx7 oral gavage; type: in vivo, Balb/c mice
Experimental: Two pharmacokinetic (PK)/pharmacodynamic (PD) studies were conducted in Balb/c mice that were administered Compound 1 once daily by oral gavage (formulated in 10% Cremophor EL/10% PG/80% DI water) for 7 days (QD×7) at doses of 0 (vehicle), 3.75, 7.5, 15, 30, 60 mg/kg (Study 1); 0 (vehicle), 7.5, 15, 30, 60, 120, or 240 mg/kg (Study 2). On the 7th day, whole blood was collected 24 hours after dosing and snap frozen. Samples were later thawed and analyzed by LC/MS for 2,3-DPG and ATP levels.

[5] = Preclinical safety and in vitro panels
[6] = Phase 1 SAD/MAD, healthy volunteers: safety; type: in vivo, human
Text: This is a first-in-human (FIH), Phase 1 study of Compound 1 that will characterize the safety, PK, and PD of Compound 1 after a single dose and after repeated dosing first in healthy adult volunteers and then in adolescents or adults with sickle cell disease. Initially, a dose range of Compound 1 in single ascending dose (SAD) escalation cohorts will be explored in healthy subjects. Enrollment of healthy subjects into 2-week multiple ascending dose (MAD) escalation cohorts will be initiated once the safety and PK from at least two SAD cohorts is available to inform the doses for the 2-week MAD portion of the study. The MAD cohorts will then run in parallel to the single dose cohorts. A single dose cohort is planned to understand food effects (FE) on the PK of Compound 1. […] Multiple dose studies in SCD subjects will then be initiated upon completion of MAD studies in healthy volunteers. Compound 1 will be administered in 25 mg and 100 mg tablets delivered orally.
In this study, SAD/MAD cohorts are randomized (3 to 1) to receive Compound 1 or placebo (P). Compound 1 was evaluated first in 4 healthy SAD cohorts and 4 healthy MAD (14-day dosing period) cohorts. Based on the safety, and PK/PD profile from HS, Compound 1 is then evaluated in 1 SCD SAD cohort and 2 SCD MAD cohorts. Specifically, based on the safety and pharmacokinetic/pharmacodynamics (PK/PD) profile in healthy volunteer studies, Compound 1 is evaluated in patients (pts) with SCD, first in a single dose (SD or SAD) cohort and then in multiple-dose (MD or MAD) cohorts (14-day and 12-week). Safety assessments include AEs, vital signs, ECGs and laboratory parameters. PK/PD blood sampling was performed on Day 1 (SAD/MAD) and Day 14 (MAD) and up to 72 h after the last dose and at the end-of-study visit. PD parameters included 2,3-DPG, ATP, and p50 in all cohorts with additional PD studies (including oxygen scan) performed only in the SCD cohorts. PD parameters included 2,3-DPG, ATP, p50, RBC deformability with controlled deoxygenation and reoxygenation (Lorrca® oxygen scan) and varying osmolality (Lorrca® osmoscan)). To maintain study blind, pt identifiers were removed when needed.
Four healthy SAD cohorts were evaluated at doses of 200, 400, 700, and 1000 mg, and four healthy MAD cohorts received 200 to 600 mg total daily doses for 14 days at QD or BID dosing (100 mg BID, 200 mg BID, 300 mg BID, and 400 mg QD). In the food effect (FE) cohort, 10 healthy subjects received 200 mg of Compound 1 QD with and without food.

[7] = test system: H295R adreno-cortical carcinoma cell line; test: Steroid modulation screen in vitro; type: cell-based; details: tested at 200 to 0.0002 μM; only at the top concentration
Experimental: as §1

T1 sequence (P53657 whole entry): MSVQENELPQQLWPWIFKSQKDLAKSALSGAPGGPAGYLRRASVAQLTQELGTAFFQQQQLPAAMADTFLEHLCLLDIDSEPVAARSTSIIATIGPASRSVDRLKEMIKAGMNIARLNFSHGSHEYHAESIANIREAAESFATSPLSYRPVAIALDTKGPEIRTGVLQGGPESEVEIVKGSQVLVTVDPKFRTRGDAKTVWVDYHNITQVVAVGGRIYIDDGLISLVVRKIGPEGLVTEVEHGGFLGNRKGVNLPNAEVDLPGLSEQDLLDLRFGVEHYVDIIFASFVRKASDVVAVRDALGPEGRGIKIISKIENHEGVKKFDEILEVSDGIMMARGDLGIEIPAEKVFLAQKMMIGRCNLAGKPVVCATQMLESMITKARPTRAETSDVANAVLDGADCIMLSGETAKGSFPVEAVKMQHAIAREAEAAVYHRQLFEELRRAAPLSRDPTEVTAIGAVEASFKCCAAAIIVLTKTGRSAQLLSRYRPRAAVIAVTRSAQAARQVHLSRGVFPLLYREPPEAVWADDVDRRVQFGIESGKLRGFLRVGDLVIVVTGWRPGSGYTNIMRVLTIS

O=C([C@H](CO)c1ccccc1)N1CC2=C(C1)CN(S(=O)(=O)c1cnc3c(c1)OCCO3)C2 (single isomer, unassigned) [Compound 1]
Max-Min (%) ([1]; individual replicates 1-2): <50% and <100%
Max-Min (%), mean ([1]; mean): <100%
cellular viability ([2]; 200 μM): 90%
cellular viability ([2]; concentrations ≤20 μM): 100%
Hgb increase [3]: ≈ 1 g/dL
reduction of 2,3-DPG levels in blood ([4]; 120 and 240 mg/kg (≥120 mg/kg) QDx7 oral): > 30%
ATP increase compared to vehicle ([4]; Study 1, 30 mg/kg QDx7 oral): 21%
ATP increase compared to vehicle ([4]; Study 1, 60 mg/kg QDx7 oral): 79%
ATP increase ([4]; Study 2, 240 mg/kg QDx7 oral (highest dose)): 45%
maximum ATP increase compared to vehicle ([4]; Study 2, doses up to 120 mg/kg QDx7 oral): ~110%
tolerability ([4]; both studies, up to 240 mg/kg QDx7, no adverse clinical signs, no body weight difference): well tolerated
reduction of 2,3-DPG levels in blood ([4]; ≥15 mg/kg QDx7 oral, 24 h after dosing on day 7): > 20%
ATP increase ([4]; ≥60 mg/kg): > 40%
preclinical evidence of arrhythmia risk, mutagenicity, nonspecific binding [5]: has not demonstrated any preclinical evidence of arrhythmia risk, mutagenicity, or nonspecific binding activity
Grade 1 headache, incidence ([6]; HS receiving 14 days of dosing): 28%
Grade 1 headache, incidence ([6]; HS receiving a single dose): 4%
related TEAE of grade 2 or less: headache ([6]; MAD cohorts): 4 n
related TEAE of grade 2 or less: palpitations ([6]; MAD cohorts): 1 n
related TEAE of grade 2 or less: somnolence ([6]; MAD cohorts): 1 n
Any TEAE, n (%) ([6]; MAD, N = 36): 15 (42) n (%)
Any grade 3 or greater TEAE, n (%) ([6]; MAD, N = 36): 0 n (%)
Drug interruption, reduction, or discontinuation due to TEAE, n (%) ([6]; MAD, N = 36): 0 n (%)
serious adverse events / AEs leading to withdrawal ([6]; SAD and MAD cohorts of healthy volunteers): No serious adverse events (SAEs) or AEs leading to withdrawal
related TEAE of grade 2 or less: headache ([6]; SAD cohorts): 1 n
related TEAE of grade 2 or less: transient ventricular tachycardia ([6]; SAD cohorts): 1 n
Any TEAE, n (%) ([6]; SAD, N = 24): 5 (21) n (%)
Any grade 3 or greater TEAE, n (%) ([6]; SAD, N = 24): 1 (4) n (%)
Drug interruption, reduction, or discontinuation due to TEAE, n (%) ([6]; SAD, N = 24): 0 n (%)
concentration at which steroid modulation potential (% over vehicle) was indicated [7]: 200 µM
